The values that follow come from US20250129103A1, “METHODS FOR TREATMENT OF CANCER” (Frontier Medicines Corporation, priority 2022, published 2025).

Data set [1] deals with KRAS G12C (GMPPNP-loaded) and PI3Ka (Ras-binding domain) interaction (Homo sapiens (Human), UniProt P01116, C118S/C51S/C80L/G12C). In words: Inhibition of KRAS G12C and PI3Ka binding (AlphaScreen). The following applies: KRAS G12C loaded with GMPPNP, PI3Ka RBD, 2 hours preincubation; read-out: PI3K RBD K-Ras IC50. Summed up:
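Biotin-AviTag Cys-light KRAS G12C (aa 1-169, C51S/C80L/C118S), GMPPNP-loaded, 1.5 nM, preincubated 2 h with compound, then His-tagged PI3Ka RBD (aa 157-300, 100 nM) plus AlphaScreen beads added for 60-90 min, RT. Buffer Hepes pH 7.4, 10 μM GMPPNP, 2% DMSO; 10-point 1:3 from 50 μM; 4-parameter IC50.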

A short description of data set [2]: Determination of logD (1-octanol / phosphate buffer pH 7.4). The format is physicochemical. Particulars: 1-octanol/phosphate buffer, pH 7.4, pH 7.4, 1-octanol/phosphate buffer; read-out: Log D, pH 7.4. In a few lines:
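Each phase analysed by LCMS after 1 h shaking at 800 rpm and centrifugation, room temperature. Phases were mutually saturated 1-octanol and 100 mM phosphate buffer at pH 7.4. LogD derived from the phase concentrations.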

Data set [3] in a line: Determination of kinetic solubility (pH 7.4). The format is physicochemical. Particulars: phosphate buffer, pH 7.4, aqueous buffer, kinetic from dmso stock, 50 mM phosphate buffer pH 7.4, read-out: Ksol, pH 7.4. Summed up: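 Solubility taken from filtrate peak areas on a calibration curve (HPLC-UV, LC-MS/MS). Before filtration and centrifugation, compound was shaken for 2 h at room temperature in pH 7.4 50 mM phosphate buffer.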

Data set [4] has as its target KRAS G12C (GMPPNP-loaded) and cRAF (Ras-binding domain) interaction (Homo sapiens (Human), UniProt P01116, C118S/C51S/C80L/G12C). The data set can be described thus: Inhibition of KRAS G12C and cRAF binding (AlphaScreen). The following applies: KRAS G12C loaded with GMPPNP, cRaf RBD, 2 hours preincubation; read-out: Raf-1 RBD K-Ras IC50. In a few lines: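 AlphaScreen readout (680 nm excitation, 570 nm emission) of RBD binding after a 60-90 min bead step at room temperature. This step follows 2 h compound exposure of GMPPNP-preloaded KRAS G12C in Hepes pH 7.4 buffer with MgCl2 and 10 μM GMPPNP.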

≈ marks a conversion by molar mass, not a printed value.

Chain of KRAS G12C (GMPPNP-loaded) and cRAF (Ras-binding domain) interaction (P01116 other isoform, or with tags, fused parts or gaps G12C/C51S/C80L/C118S): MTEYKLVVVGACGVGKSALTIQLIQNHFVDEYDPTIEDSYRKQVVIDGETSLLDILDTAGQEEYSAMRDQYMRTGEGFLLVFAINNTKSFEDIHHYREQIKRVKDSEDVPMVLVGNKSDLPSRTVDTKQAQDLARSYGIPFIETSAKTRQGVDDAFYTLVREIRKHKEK
Chain of KRAS G12C (GMPPNP-loaded) and PI3Ka (Ras-binding domain) interaction (P01116 other isoform, or with tags, fused parts or gaps G12C/C51S/C80L/C118S): as above

As for `Cc1cc(/C=C/C(=O)N2CCN(c3nc(OC[C@@]45CCCN4C[C@H](F)C5)nc4c(F)c(-c5cccc6ccc(F)c(F)c56)ncc34)C[C@@H]2CC#N)nc(C)n1` [Example 90, 2-((S)-4-(7-(7,8-difluoronaphthalen-1-yl)-8-fluoro-2-(((2R,7aS)-2-fluorotetrahydro-1H-pyrrolizin-7a(5H)-yl)methoxy)pyrido[4,3-d]pyrimidin-4-yl)-1-((E)-3-(2,6-dimethylpyrimidin-4-yl)acryloyl)piperazin-2-yl)acetonitrile], the 50% inhibitory concentration (IC50) in data set [1] is < 0.01 µM; in data set [4], 0.01 to 0.1 µM. Besides, the logD in data set [2] stood at 3.77. In addition, in data set [3], the solubility kinetic at 2 h stood at 5.26 µg/mL (≈ 7 µM).
